Source: patent US8007767B2, “Amino methyl imidazoles and related compounds as C5a receptor modulators” (Novartis International Pharmaceutical Ltd., priority 2002, dated 2011)
pKi: −log10 of the molar value.

Target: T1, human C5a receptor (Homo sapiens, UniProt P21730)
T1 construct: endogenous in cells; host or cells: U937 cells differentiated with 1 mM dibutyryl cAMP
T1 sequence (P21730 1-350): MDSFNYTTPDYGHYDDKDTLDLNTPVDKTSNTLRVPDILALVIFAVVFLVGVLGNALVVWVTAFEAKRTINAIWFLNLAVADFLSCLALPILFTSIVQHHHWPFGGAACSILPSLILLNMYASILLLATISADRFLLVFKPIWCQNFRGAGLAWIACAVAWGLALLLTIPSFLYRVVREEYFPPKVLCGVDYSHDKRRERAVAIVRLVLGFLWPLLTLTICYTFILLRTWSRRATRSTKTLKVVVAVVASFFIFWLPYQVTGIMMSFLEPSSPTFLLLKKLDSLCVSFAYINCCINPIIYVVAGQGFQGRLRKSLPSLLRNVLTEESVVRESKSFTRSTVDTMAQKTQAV
Test: standard assay of C5a receptor mediated calcium mobilization (Example 20)
Type: cell-based
Details: differentiated U937 cells, read-out: Ki < 1 μM
Method: U937 cells are grown in differentiation media (1 mM dibutyrl cAMP in RPMI 1640 medium containing 10% fetal bovine serum) for 48 hours at 37° C. then reseeded onto 96-well plates suitable for use in a FLIPR™ Plate Reader (Molecular Devices Corp., Sunnyvale Calif.). Cells are grown an additional 24 hours (to 70-90% confluence) before the assay. The cells are then washed once with Krebs Ringer solution. FLUO-3 calcium sensitive dye (Molecular Probes, Inc. Eugene, Oreg.) is added to 10 μg/mL and incubated with the cells at room temperature for 1 to 2 hours. The 96 well plates are then washed to remove excess dye.
C. Assays for the Identification of Receptor Modulatory Agents: Antagonists and Agonists
Those of skill in the art will recognize that the calcium mobilization assay described above may be readily adapted for identifying test compounds as having agonist or antagonist activity, at the human C5a receptor.
For example, in order to identify antagonist compounds, differentiated U937 cells are washed and incubated with Fluo-3 dye as described above. One hour prior to measuring the fluorescence signal, a subset of the cells is incubated with a 1 uM concentration of at least one compound to be tested. The fluorescence response upon the subsequent addition of 0.3 nM (final concentration) human recombinant C5a is monitored using the FLIPR™ plate reader. Antagonist compounds elicit at least a 2-fold decrease in the fluorescence response relative to that measured in the presence of human C5a alone. Preferred antagonist compounds elicit at least a 5-fold, preferably at least a 10-fold, and more preferably at least a 20-fold decrease in the fluorescence response relative to that measured in the presence of human C5a alone.

SMILES | pKi
CCCCn1c(CN(Cc2ccccc2)Cc2ccc3c(c2)OCCO3)cnc1C1CCCCC1 [Compound 10, Benzyl-(1-butyl-2-cyclohexyl-3H-imidazol-5-ylmethyl)-(2,3-dihydro-benzo[1,4]dioxin-6-ylmethyl)-amine] | > 6.00
CCCCn1c(CN(Cc2ccccc2)Cc2ccc3c(c2)OCO3)cnc1C1CCCCC1 [Compound 9, Benzo[1,3]dioxol-5-ylmethyl-benzyl(1-butyl-2-cyclohexyl-3H-imidazol-5-ylmethyl)-amine] | > 6.00
CCCCn1c(C2=CCCCC2)nc(-c2ccccc2)c1CN(Cc1ccc2c(c1)OCO2)Cc1ccc2c(c1)OCO2 [Compound 12, 1-(1,3-benzodioxol-5-yl)-N-(1,3-benzodioxol-5-ylmethyl)-N-[(1-butyl-2-cyclohex-1-en-1-yl-4-phenyl-1H-imidazol-5-yl)methyl]methanamine] | > 6.00
CCCCN(Cc1ccc2c(c1)OCCO2)Cc1c(Cl)nc(N2CCOCC2)n1CCCC [Compound 17, N-[(1-butyl-4-chloro-2-morpholin-4-yl-1H-imidazol-5-yl)methyl]-N-(2,3-dihydro-1,4-benzodioxin-6-ylmethyl)butan-1-amine] | > 6.00
CCCCn1c(C2CC=CCC2)nc(-c2ccccc2)c1CN(Cc1ccc2c(c1)OCO2)Cc1ccc2c(c1)OCO2 (centres unmarked) [Compound 13, 1-(1,3-benzodioxol-5-yl)-N-(1,3-benzodioxol-5-ylmethyl)-N-[(1-butyl-2-cyclohex-3-enyl-4-phenyl-1H-imidazol-5-yl)methyl]methanamine] | > 6.00
CCCCn1c(C2CC2)nc(-c2ccccc2)c1CN(Cc1ccc2c(c1)OCO2)Cc1ccc2c(c1)OCO2 [Compound 11, 1-(1,3-benzodioxol-5-yl)-N-(1,3-benzodioxol-5-ylmethyl)-N-[(1-butyl-2-cycloproyl-4-phenyl-1H-imidazol-5yl)methyl]methanamine] | > 6.00
CCCCn1c(N2CCOCC2)nc(Cl)c1CN(Cc1ccc(C(=O)OC)cc1)Cc1ccc2c(c1)OCCO2 [Compound 14, methyl 4-{[[(1-butyl-4-chloro-2-morpholin-4-yl-1H-imidazol-5-yl)methyl](2,3-dihydro-1,4-benzodioxin-6-ylmethyl)amino]methyl}benzoate] | > 6.00
CCCCn1c(N2CCOCC2)nc(Cl)c1CN(Cc1ccc(C(=O)O)cc1)Cc1ccc2c(c1)OCCO2 [Compound 15, 4-{[[(1-butyl-4-chloro-2-morpholin-4-yl-1H-imidazol-5-yl)methyl](2,3-dihydro-1,4-benzodioxin-6-ylmethyl)amino]methyl}benzoic acid] | > 6.00
CCCCn1c(N2CCOCC2)nc(Cl)c1CN(CCC(C)C)Cc1ccc2c(c1)OCCO2 [Compound 18, N-[(1-butyl-4-chloro-2-morpholin-4-yl-1H-imidazol-5-yl)methyl]-N-(2,3-dihydro-1,4-benzodioxin-6-ylmethyl)-3-methylbutan-1-amine] | > 6.00
CCCCn1c(N2CCOCC2)nc(Cl)c1CN(CCC(C)C)Cc1ccc2c(c1)CCCN2 [Compound 22] | > 6.00
CCCCn1c(N2CCCCC2)nc(Cl)c1CN(Cc1cccc(OCC)c1)Cc1ccc2c(c1)OCCO2 [Compound 21, 1-(1-butyl-4-chloro-2-piperidin-1-yl-1H-imidazol-5-yl)-N-(2,3-dihydro-1,4-benzodioxin-6-ylmethyl)-N-(3-ethoxybenzyl)methanamine] | > 6.00
CCCCN(Cc1ccc2[nH]ccc2c1)Cc1c(Cl)nc(N2CCOCC2)n1CCCC [Compound 16, N-[(1-butyl-4-chloro-2-morpholin-4-yl-1H-imidazol-5-yl)methyl]-N-(1H-indol-5-ylmethyl)butan-1-amine] | > 6.00
CCCCN(Cc1c(Cl)nc(N2CCOCC2)n1CCCC)C(C)c1ccc2c(c1)OCCO2 (centres unmarked) [Compound 19, N-[(1-butyl-4-chloro-2-morpholin-4-yl-1H-imidazol-5-yl)methyl]-N-[1-(2,3-dihydro-1,4-benzodioxin-6-yl)ethyl]butan-1-amine] | > 6.00
CCCCn1c(N2CCOCC2)nc(Cl)c1CN(CCC(C)C)C(C)c1ccc2c(c1)OCCO2 (centres unmarked) [Compound 20, N-{(1-butyl-4-chloro-2-morpholin-4-yl-1H-imidazol-5-yl)methyl]-N-[1-(2,3-dihydro-1,4-benzodioxin-6-yl)ethyl]-3-methylbutan-1-amine] | > 6.00
